For experiment [1], the target named is Troponin, cardiac muscle (Homo sapiens, UniProt P19429+P45379+P63316). Put plainly: Fluorescence-based biochemical high throughput dose response assay for activators of the calcium sensitivity of cardiac Regulated Thin Filaments (RTF). [Related pubchem assays (depositor defined):AID493008, AID493018, AID504382, AID504383]. The experiment is classed as protein-complex assay.

The nature of experiment [2]: mammalian cell cytotoxicity, dose response, cytotoxicity control, plate reader, cherry-pick samples (AID 504397). The experiment is classed as functional, cell-based.
The target of experiment [3] is T1, Tyrosine-protein phosphatase non-receptor type 22 (Homo sapiens, UniProt Q9Y2R2).
T1 sequence (Q9Y2R2 whole entry): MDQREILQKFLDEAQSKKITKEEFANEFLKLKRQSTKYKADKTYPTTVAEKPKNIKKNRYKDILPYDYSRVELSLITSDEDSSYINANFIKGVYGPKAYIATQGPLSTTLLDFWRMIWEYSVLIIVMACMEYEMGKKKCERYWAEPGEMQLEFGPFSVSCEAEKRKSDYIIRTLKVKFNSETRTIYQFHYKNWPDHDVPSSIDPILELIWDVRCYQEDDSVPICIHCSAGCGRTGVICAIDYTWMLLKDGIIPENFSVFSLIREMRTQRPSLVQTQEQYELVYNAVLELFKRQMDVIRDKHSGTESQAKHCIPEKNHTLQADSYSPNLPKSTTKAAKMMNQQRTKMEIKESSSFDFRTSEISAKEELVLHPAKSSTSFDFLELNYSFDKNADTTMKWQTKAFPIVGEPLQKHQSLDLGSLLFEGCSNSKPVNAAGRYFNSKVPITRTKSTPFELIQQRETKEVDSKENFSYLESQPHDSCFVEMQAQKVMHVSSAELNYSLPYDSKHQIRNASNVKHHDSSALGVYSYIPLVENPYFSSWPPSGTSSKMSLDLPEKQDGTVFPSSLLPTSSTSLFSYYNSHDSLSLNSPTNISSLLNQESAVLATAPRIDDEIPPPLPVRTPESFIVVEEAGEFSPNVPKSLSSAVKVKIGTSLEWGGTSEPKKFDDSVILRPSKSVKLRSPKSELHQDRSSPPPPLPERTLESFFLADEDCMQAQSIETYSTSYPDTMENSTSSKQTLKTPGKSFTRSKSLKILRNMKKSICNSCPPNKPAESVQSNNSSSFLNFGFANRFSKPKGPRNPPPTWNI
Type of experiment: functional.

For experiment [4], the target named is T1, Tyrosine-protein phosphatase non-receptor type 22. The experiment is classed as functional. This is another data set of the same source.
For experiment [5], the target named is T2, Tyrosine-protein phosphatase non-receptor type 7 (Homo sapiens, UniProt P35236).
T2 sequence (P35236 whole entry): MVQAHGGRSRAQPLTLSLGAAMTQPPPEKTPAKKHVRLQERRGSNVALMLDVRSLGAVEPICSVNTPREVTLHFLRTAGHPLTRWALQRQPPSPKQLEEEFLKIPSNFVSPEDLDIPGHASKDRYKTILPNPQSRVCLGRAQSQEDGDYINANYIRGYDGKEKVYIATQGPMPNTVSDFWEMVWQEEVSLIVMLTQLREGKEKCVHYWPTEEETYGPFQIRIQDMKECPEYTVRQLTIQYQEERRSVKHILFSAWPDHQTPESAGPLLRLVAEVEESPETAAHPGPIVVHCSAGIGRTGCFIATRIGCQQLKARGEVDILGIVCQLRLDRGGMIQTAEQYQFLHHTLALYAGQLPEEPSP
Type of experiment: functional.

Experiment [6] addresses X-box-binding protein 1 (Homo sapiens, UniProt P17861). The experiment is classed as functional, Cricetulus griseus.
Experiment [7] addresses DNA damage-inducible transcript 3 protein (Mus musculus, UniProt P35639). Type of experiment: functional, Cricetulus griseus.
In experiment [8] the target is T3, Coagulation factor XII (Homo sapiens, UniProt P00748).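 Further: activated factor XIIa alpha cleaving a fluorogenic AMC peptide substrate; inhibitor potency from loss of enzyme activity.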
T3 sequence (P00748 whole entry): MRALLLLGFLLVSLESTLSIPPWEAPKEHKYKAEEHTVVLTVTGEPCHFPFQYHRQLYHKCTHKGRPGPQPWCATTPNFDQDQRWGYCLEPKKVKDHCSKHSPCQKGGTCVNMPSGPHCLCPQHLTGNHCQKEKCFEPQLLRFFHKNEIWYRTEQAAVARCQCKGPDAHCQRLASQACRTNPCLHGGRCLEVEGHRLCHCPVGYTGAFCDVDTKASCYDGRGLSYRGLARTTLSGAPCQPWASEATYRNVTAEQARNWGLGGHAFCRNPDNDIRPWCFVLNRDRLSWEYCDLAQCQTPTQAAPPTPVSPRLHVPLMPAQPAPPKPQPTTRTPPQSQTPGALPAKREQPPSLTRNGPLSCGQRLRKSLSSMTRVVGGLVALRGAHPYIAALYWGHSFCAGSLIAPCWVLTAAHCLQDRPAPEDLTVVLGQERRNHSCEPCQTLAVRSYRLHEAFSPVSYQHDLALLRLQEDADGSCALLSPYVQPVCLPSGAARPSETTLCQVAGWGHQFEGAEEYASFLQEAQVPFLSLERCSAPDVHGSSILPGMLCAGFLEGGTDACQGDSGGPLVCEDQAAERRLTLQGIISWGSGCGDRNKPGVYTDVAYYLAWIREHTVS
The experiment is classed as functional.

Experiment [9] concerns the target Cytochrome P450 3A4 (Homo sapiens, UniProt P08684).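 Further: CYP3A4 tested as one member of a cytochrome P450 panel screen.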
A short description of experiment [10]: C. albicans growth with fluconazole, confirmation, fluorescence, retest (AID 2467). The experiment is classed as functional, cell-based.
Experiment [11] in a line: NIH-3T3 fibroblast cytotoxicity, dose response, cytotoxicity control, cell-based, fluorescence, Alamar Blue, secondary assay (AID 2327).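 Further: NIH-3T3 mouse fibroblasts cultured with fluconazole at 8 µg/mL.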 The experiment is classed as functional. In general terms: Resazurin is reduced to fluorescent resorufin, in cell work by metabolically active cells.
The target in experiment [12] is T4, Fatty acid synthase (Homo sapiens, UniProt P49327). Nature of the experiment: FAS thioesterase domain inhibitors, dose response, biochemical, endpoint fluorescence intensity, uHTS hits (AID 624327).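 Further: fluorescence from hydrolysis of an O-methyl fluorescein acyl ester substrate by the enzyme.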 The experiment is classed as functional.
For experiment [13], the target named is T4, Fatty acid synthase. Nature of the experiment: FAS thioesterase domain inhibitors, dose response, biochemical, kinetic fluorescence intensity (AID 624326).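 Further: rate of fluorescence rise from hydrolysis of a fluorogenic O-methyl fluorescein ester substrate.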 Type of experiment: functional.
Experiment [14] deals with T5, Mucolipin-3 (Homo sapiens, UniProt Q8TDD5).
T5 sequence (Q8TDD5 whole entry): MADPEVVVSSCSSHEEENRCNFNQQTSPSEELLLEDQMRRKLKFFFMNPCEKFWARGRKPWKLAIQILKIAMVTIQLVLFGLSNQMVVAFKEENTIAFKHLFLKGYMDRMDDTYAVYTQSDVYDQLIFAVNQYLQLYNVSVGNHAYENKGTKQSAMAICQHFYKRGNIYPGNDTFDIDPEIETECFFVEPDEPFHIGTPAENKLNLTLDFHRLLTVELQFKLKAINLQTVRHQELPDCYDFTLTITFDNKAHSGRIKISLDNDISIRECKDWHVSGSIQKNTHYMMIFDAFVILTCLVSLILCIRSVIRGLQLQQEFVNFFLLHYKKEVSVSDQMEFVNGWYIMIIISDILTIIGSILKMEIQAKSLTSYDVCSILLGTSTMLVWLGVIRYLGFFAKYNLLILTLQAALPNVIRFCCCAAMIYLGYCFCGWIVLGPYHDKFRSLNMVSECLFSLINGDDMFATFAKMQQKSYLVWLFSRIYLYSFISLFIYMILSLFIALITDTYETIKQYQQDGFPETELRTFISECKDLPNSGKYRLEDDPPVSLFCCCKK
Nature of the experiment: Fluorescence counterscreen assay for […] agonists: dose response cell-based high-throughput screening assay to identify agonists of the transient receptor potential channel ML3 (TRPML3). [Related pubchem assays: 1424, 1448 ]. Type of experiment: functional.

Experiment [15] addresses Ion channel NompC (Danio rerio, UniProt Q7T1G6). Put plainly: Dose response cell-based high-throughput screening assay for agonists of the transient receptor potential channel N1 (TRPN1). [Related pubchem assays (depositor defined):AID1424, AID1448]. Type of experiment: functional.
Experiment [16] concerns the target T6, Peroxisome proliferator-activated receptor gamma (Homo sapiens, UniProt P37231).
T6 sequence (P37231 whole entry): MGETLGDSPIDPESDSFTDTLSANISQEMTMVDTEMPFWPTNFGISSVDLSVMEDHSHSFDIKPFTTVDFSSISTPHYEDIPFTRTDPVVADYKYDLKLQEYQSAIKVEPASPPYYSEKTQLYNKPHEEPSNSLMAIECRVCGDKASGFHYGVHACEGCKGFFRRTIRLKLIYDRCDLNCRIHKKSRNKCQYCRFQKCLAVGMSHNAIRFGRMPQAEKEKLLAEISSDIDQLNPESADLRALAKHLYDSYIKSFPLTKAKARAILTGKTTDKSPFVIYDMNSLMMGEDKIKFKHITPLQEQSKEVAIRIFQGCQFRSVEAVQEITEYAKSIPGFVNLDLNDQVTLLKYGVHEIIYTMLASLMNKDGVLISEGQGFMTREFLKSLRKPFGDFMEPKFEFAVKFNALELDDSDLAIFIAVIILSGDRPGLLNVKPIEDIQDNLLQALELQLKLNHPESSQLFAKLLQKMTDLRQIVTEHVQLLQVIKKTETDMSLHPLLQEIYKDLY
Nature of the experiment: PPARg partial agonists, dose response, cell-based, luminescence, assay provider (AID 504447). Type of experiment: functional.

Experiment [17] concerns the target T6, Peroxisome proliferator-activated receptor gamma. Put plainly: PPARg ligand-binding domain binders, dose response, PPARg partial agonist project, biochemical, TR-FRET, LanthaScreen (AID 504446). A general note: TR-FRET usually uses a lanthanide donor and a delayed reading to cut background.
Experiment [18] deals with T7, Serine/threonine-protein phosphatase (Candida dubliniensis (strain CD36 / CBS 7987 / NCPF 3949 / NRRLY-17841) (Yeast), UniProt B9W6M3).
T7 sequence (B9W6M3 whole entry): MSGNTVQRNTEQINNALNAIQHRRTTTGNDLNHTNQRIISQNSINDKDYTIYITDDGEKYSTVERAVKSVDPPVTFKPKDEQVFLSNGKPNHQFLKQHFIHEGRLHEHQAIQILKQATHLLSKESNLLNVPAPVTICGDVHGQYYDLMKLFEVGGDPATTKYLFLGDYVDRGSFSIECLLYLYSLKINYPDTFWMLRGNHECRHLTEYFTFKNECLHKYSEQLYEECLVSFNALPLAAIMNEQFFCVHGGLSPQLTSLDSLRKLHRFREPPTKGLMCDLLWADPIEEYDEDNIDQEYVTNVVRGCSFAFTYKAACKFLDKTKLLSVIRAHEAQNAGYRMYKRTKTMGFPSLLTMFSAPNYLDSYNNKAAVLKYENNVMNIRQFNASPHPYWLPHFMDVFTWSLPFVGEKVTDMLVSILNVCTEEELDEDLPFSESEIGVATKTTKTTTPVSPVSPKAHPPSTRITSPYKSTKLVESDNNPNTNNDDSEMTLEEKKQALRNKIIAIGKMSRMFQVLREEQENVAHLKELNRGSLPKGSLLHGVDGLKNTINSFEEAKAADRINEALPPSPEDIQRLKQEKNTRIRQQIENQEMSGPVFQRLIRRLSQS
Put plainly: calcineurin pathway inhibitors in yeast reporter, dose response, S. cerevisiae, CDRE-lacZ, luminescence, secondary (AID 2388).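 Further: yeast reporter cells carrying a calcineurin-responsive lacZ construct stimulated with calcium chloride; luminescent beta-galactosidase reporter signal in whole cells rather than isolated phosphatase activity; potency for inhibition where a drop in reporter signal means calcineurin blockade.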 The experiment is classed as functional, cell-based.

In experiment [19] the target is T6, Peroxisome proliferator-activated receptor gamma. Nature of the experiment: PPARg ligand-binding domain binders, dose response, PPARg partial agonist project, biochemical, fluorescence polarization, PolarScreen (AID 504453). Background: Polarisation of emitted light reports the rotation of a fluorescent probe.
Experiment [20] concerns the target ATP-dependent molecular chaperone HSP82 (Candida albicans (strain WO-1) (Yeast), UniProt C4YTQ8). Nature of the experiment: loss of DOC-induced GRE-beta-galactosidase reporter signal, dose response, Hsp90 inhibitor project, S. cerevisiae, luminescence (AID 2400).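 Further: beta-galactosidase luminescence from glucocorticoid response element reporter as proxy for Hsp90 function; inhibitor potency where signal loss means Hsp90 inhibition.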 The experiment is classed as functional, cell-based.
Experiment [21] has as its target Voltage-dependent T-type calcium channel subunit alpha-1H (Homo sapiens, UniProt O95180). Nature of the experiment: Cav3.2 T-type channel inhibitors, synthesized analogs, SAR follow-up, cell-based, synthetic library set 2, HEK293 HH8, Fluo-4 (AID 493023). Type of experiment: functional.

The source made the active and inactive calls.
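Wherever Absolute IC50 (XBP1) is given: confirmatory dose-response counter-screen serving a CHOP assay.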

T4 sequence (P49327 whole entry, the tested form may be a part): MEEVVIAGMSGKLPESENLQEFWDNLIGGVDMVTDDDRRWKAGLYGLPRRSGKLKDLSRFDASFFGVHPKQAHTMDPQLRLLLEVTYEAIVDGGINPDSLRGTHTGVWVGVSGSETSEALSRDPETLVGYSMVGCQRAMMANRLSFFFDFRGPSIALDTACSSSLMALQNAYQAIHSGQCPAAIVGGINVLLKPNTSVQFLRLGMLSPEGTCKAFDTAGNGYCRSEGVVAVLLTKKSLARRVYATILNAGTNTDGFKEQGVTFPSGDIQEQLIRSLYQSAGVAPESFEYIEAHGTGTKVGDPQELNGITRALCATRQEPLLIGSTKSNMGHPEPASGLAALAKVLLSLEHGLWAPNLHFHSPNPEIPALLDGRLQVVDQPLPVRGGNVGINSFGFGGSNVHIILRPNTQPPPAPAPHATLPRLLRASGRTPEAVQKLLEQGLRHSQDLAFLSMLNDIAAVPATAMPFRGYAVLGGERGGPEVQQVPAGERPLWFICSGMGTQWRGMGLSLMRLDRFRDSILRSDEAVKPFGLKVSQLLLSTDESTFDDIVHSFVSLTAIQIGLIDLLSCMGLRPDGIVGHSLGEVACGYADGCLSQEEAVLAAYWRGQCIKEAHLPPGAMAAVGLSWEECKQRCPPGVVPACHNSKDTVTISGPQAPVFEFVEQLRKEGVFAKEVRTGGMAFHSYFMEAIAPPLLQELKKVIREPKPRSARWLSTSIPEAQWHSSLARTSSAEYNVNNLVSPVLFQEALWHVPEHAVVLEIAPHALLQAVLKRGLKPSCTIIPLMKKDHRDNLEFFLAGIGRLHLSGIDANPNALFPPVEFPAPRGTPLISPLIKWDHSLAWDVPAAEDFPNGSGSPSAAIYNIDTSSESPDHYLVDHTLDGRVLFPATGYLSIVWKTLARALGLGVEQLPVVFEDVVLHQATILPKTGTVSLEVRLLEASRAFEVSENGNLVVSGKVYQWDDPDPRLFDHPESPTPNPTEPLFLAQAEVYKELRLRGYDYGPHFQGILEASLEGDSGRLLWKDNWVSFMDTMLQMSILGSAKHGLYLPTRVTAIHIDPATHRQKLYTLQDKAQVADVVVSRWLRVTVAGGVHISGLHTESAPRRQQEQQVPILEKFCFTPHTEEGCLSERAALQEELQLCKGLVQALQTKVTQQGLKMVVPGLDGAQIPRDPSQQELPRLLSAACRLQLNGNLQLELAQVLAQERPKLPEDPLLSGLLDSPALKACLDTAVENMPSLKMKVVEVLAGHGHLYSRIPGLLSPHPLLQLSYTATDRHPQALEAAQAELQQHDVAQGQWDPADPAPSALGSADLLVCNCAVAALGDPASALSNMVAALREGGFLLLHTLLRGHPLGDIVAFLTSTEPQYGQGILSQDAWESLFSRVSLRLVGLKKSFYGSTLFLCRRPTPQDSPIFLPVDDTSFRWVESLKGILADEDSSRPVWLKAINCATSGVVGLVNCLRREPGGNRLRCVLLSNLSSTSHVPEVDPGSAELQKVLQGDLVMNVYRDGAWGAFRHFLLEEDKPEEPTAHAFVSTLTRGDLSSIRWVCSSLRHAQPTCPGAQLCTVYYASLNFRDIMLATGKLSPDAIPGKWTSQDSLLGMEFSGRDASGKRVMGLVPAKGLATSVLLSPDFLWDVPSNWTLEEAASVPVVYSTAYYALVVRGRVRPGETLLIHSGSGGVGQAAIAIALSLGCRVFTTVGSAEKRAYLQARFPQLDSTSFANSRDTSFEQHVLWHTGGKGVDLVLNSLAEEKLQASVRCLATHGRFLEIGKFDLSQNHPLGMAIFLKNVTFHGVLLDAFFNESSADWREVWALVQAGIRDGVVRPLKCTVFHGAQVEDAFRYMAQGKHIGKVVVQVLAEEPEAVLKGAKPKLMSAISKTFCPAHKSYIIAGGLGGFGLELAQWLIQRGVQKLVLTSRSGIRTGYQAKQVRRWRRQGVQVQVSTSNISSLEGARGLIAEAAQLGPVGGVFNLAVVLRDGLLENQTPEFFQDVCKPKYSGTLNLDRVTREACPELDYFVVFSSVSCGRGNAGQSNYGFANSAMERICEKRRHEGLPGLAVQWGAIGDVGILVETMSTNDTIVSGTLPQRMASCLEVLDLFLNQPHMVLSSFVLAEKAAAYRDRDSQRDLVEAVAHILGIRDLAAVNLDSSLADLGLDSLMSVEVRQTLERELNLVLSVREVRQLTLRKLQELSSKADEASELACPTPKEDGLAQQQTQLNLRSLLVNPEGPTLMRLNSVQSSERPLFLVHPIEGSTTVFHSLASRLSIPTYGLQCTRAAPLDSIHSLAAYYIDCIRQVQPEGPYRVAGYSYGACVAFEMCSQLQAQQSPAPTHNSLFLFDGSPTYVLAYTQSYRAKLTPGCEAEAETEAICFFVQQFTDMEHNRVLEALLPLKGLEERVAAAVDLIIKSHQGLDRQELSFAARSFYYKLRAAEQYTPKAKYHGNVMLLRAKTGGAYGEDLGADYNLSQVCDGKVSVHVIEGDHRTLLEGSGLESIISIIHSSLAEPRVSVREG
Sequence of ATP-dependent molecular chaperone HSP82 (C4YTQ8 whole entry): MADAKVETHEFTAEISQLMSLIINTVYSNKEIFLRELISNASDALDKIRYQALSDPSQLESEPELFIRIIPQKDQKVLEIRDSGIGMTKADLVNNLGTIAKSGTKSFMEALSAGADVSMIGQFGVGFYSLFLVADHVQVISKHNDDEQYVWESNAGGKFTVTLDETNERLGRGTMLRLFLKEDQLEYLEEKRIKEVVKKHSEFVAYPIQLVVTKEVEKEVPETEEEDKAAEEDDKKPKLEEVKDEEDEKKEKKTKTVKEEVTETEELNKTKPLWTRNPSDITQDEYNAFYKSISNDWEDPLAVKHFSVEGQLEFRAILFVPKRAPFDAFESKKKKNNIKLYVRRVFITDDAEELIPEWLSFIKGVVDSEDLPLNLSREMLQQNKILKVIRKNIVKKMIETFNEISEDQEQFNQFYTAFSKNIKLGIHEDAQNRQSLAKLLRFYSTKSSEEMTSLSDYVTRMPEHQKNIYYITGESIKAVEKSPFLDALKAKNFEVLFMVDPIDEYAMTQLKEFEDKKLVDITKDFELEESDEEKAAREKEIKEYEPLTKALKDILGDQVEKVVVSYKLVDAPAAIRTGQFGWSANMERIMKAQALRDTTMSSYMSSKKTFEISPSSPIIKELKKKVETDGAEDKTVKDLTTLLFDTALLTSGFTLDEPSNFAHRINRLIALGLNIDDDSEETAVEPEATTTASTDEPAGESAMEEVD
Sequence of DNA damage-inducible transcript 3 protein (P35639 whole entry): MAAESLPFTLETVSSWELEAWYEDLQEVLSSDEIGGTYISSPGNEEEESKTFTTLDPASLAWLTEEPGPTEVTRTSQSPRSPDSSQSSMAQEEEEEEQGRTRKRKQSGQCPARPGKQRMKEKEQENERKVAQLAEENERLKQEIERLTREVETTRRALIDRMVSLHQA
Sequence of Cytochrome P450 3A4 (P08684 whole entry): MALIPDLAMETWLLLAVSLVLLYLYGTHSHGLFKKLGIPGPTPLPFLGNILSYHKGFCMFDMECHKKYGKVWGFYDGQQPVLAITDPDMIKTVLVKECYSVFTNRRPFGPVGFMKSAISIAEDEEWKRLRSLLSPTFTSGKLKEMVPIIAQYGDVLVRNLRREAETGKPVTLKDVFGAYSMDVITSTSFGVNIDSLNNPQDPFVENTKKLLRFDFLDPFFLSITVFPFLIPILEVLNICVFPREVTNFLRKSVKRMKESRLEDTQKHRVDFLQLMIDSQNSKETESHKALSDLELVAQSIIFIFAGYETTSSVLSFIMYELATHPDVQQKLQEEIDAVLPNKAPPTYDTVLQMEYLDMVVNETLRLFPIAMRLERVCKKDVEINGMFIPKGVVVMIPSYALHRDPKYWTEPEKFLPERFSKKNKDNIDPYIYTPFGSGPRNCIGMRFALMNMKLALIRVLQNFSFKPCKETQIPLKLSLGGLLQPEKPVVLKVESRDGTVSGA
Sequence of X-box-binding protein 1 (P17861 whole entry): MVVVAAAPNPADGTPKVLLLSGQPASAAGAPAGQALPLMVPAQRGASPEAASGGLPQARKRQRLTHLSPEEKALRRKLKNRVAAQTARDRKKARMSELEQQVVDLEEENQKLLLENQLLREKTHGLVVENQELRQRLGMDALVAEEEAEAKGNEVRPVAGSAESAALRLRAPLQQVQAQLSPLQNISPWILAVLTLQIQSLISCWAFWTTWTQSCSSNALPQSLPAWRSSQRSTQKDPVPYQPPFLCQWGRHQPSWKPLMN

Take `Cc1cc(S(=O)(=O)N2CCCC(C(=O)Nc3ccc(C(=O)O)cc3)C2)ccc1Cl` (stereo not drawn): in experiment [1], the EC50 was > 71.5 µM (inactive).
For the molecule `COc1ccc(CCN(C)C(=O)c2ccc(S(=O)(=O)Nc3ccccc3C)cc2)cc1OC`, the AC50 in experiment [2] is > 350 µM (inactive).
Consider `COC(=O)C1=NN(C(=O)c2cccc(Cl)c2)C(O)(C(C)(C)C)C1` (stereo not drawn), for which the IC50 in experiment [3], in experiment [4] and in experiment [5] was > 79.4 µM (inactive) each time.
Take `Cc1cc(C)c(C)c(S(=O)(=O)ON2C(=O)c3ccccc3C2=O)c1C`: in experiment [6], the “Absolute IC50 (XBP1)” value is 10 µM. In addition, the “Absolute IC50 (CHOP)” value in experiment [7] worked out at 10 µM. Moreover, the results for the half-inhibitory concentration (IC50) in experiment [8], in experiment [12] and in [13] were 12.9 µM (active), 610 nM (active) and 417 nM (active), respectively. In addition, in experiment [9], the AC50 was 39.8 µM (inconclusive). Besides, the EC50 was 4.78 µM (active) in [10] and 3.15 µM (inconclusive) in experiment [11].
For the molecule `N#C/C(=C(/O)C(Cl)(Cl)Cl)c1nc2ccccc2[nH]1`, the EC50 in experiment [14] was > 29.9 µM (not active); in [15], > 29.9 µM (inactive).
As to `Cc1ccc2nc(N3C(=O)C(O)=C(C(=O)c4ccco4)C3c3ccc(C)o3)sc2c1` (stereo not drawn), the EC50 in [16] was 26 µM (active); in experiment [10], 0.071 µM (active); in [18] it was > 180 µM (inactive); in experiment [11], 67.5 µM (active); in experiment [20] it was 9.58 µM (active). Further, the IC50 in [17] is 14 µM (inactive); in [19], 30 µM (active).
`CC(C)(C)CCN1CCC[C@H](NC(=O)COc2ccc(F)cc2Cl)C1`: in experiment [21], the EC50 was 2.4 µM (active).

As usually defined, the EC50 is the concentration at which the effect is half-maximal. What is called AC50 is the midpoint of the concentration-response curve, whichever way the signal moves. For orientation: IC50 means the point on the concentration scale where inhibition reaches its midpoint.
